Test results: paper PMC10779987, “Machine-Learning- and Structure-Based Virtual Screening for Selecting Cinnamic Acid Derivatives as Leishmania major DHFR-TS Inhibitors” (Molecules, 2023)
pIC50: −log10 of the molar value. Read-outs that look alike come from different tables or passages of the source.

How the values were obtained:
TNBC cells = details: read-out: IC50, TNBC cells in vitro; FAK inhibitor; proliferation, invasion, migration; cited from earlier work
Leishmania amastigotes = test system: Leishmania amastigotes; parameters: method as in earlier work; details: ref 24 (Gouri et al.); read-out: IC50 against Leishmania amastigotes; cited from earlier work
LmDHFR-TS = molecular target: T1, LmDHFR-TS (Leishmania major, UniProt P07382); assay: LmDHFR-TS enzymatic inhibition assay (spectrophotometric standard DHFR assay); format: biochemical; details: for SI (selectivity index): HsDHFR versus LmDHFR-TS
T1 construct: made in house
Experimental: The determination of IC50 values involved analyzing concentration-response curves within the 0.1–128 μM range, employing spectrophotometric monitoring of enzymatic activity in a standard DHFR assay.
(§1) Purification and kinetic characterization of the recombinant LmDHFR-TS protein were performed according to the previously reported procedures, while HsDHFR protein was obtained from the commercial assay kit (CS0340, Merck KGaA, Darmstadt, Germany). […] These tested compounds were available from our in-house compound library.
(§2) The assay was conducted with either LmDHFR-TS or HsDHFR (2.7 nM), bovine serum albumin (BSA, 1 mg/mL), N-[tris(hydroxymethyl)-methyl]-2-aminoethanesulfonic acid (TES) buffer (100 mM, pH 7.0, 150 mM β-mercaptoethanol, 2 mM ethylenediaminetetraacetic acid (EDTA)), and nicotinamide adenine dinucleotide phosphate (NADPH, 100 μM), along with varying concentrations of the test compounds (0.1–128 μM). The reaction was initiated by adding the substrate (7,8-dihydrofolate (H2F), 20 μM) and monitored for 360 s at 340 nm, measuring the oxidation of NADPH to NADP+. This allowed the determination of the initial reaction rate (Vo) through linear regression analysis of the resulting absorbance profile.

HsDHFR = molecular target: T2, HsDHFR (Homo sapiens, UniProt P00374); assay: HsDHFR enzymatic inhibition assay (spectrophotometric standard DHFR assay); format: biochemical
T2 construct: purchased Merck KGaA CS0340
T2 sequence (P00374 1-187): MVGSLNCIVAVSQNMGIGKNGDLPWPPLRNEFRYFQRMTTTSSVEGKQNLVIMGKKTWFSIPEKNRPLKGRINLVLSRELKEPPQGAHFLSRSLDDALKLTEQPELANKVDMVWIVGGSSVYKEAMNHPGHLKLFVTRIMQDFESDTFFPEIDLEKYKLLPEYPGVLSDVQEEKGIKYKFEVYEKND
Experimental: Following this, we calculated the selectivity index (SI) based on the results obtained from in vitro tests using the recombinant protein of Homo sapiens (Hs) DHFR.
as §1, §2

BEL-7402 = details: read-out: IC50 cytotoxic activity, BEL-7402; BEL-7402 cell line; cited from earlier work
HepG2 = details: read-out: IC50 cytotoxic activity, HepG2; HepG2 cell line; cited from earlier work
[1] = recombinant LmDHFR-TS 2.7 nM, 0.1–128 μM test range, triplicate
[2] = HsDHFR 2.7 nM, 0.1–128 μM test range, triplicate, read-out: HsDHFR IC50

T1 sequence (P07382 whole entry): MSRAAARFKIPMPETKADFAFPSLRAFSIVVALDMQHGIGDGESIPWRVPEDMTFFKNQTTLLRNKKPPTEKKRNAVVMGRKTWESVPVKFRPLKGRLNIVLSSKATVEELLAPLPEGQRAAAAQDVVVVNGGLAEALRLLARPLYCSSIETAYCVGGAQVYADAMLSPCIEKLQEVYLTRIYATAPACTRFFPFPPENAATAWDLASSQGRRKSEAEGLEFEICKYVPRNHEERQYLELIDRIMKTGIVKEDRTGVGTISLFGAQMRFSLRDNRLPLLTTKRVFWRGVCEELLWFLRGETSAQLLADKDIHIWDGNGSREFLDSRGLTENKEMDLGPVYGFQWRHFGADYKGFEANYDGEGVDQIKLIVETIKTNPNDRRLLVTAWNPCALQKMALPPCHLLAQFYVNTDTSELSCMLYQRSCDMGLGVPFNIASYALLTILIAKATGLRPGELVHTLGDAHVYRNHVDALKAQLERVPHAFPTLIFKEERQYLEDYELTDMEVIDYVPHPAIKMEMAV

SMILES | pIC50 (Leishmania amastigotes) | pIC50 (LmDHFR-TS) | pIC50 (HsDHFR; [2]) | further results
CN(C)CCN(C(=O)/C=C/c1c[nH]c2ccccc12)c1ccccn1 [(E)-N-(2-(dimethylamino)ethyl)-3-(1H-indol-3-yl)-N-(pyridin-2-yl) acrylamide] | – | – | – | pIC50 (TNBC cells): 5.08
O=c1cc(-c2ccccc2)oc2cc(O)cc(O)c12 [Compound 69, chrysin] | 4.89 | – | – | –
COc1ccc([C@@H]2CC(=O)c3c(O)cc(O[C@@H]4O[C@H](CO[C@@H]5O[C@@H](C)[C@H](O)[C@@H](O)[C@H]5O)[C@@H](O)[C@H](O)[C@H]4O)cc3O2)cc1O [Compound 140, hesperidin] | – | 4.67 | – | SI (selectivity index) (LmDHFR-TS): 4.0; LmDHFR-TS IC50 (LmDHFR-TS; [1]): low activity; pIC50 (HsDHFR): 4.06
O=C(/C=C/c1ccc(O)c2c1[C@H](C(=O)O)[C@@H](c1ccc(O)c(O)c1)O2)O[C@H](Cc1ccc(O)c(O)c1)C(=O)O [Compound 237, lithospermic acid] | – | 5.12 | 4.65 | –
COc1ccc(C[C@H]2COC(=O)[C@@H]2Cc2cc(OC)c(O)c(-c3cc(C[C@H]4C(=O)OC[C@@H]4Cc4ccc(OC)c(OC)c4)cc(OC)c3O)c2)cc1OC [Compound 306, diarctigenin] | – | 5.21 | 4.55 | –
COc1cc(C[C@H]2COC(=O)[C@@H]2Cc2cc(OC)c3c(c2)[C@H](CO)[C@@H](c2ccc(O)c(OC)c2)O3)ccc1O [Compound 308, isolappaol A] | – | 5.00 | 4.35 | –
C[C@H]1CCC/C=C/[C@@H]2C[C@H](O)C[C@H]2[C@H](OC(=O)/C=C/c2ccc(N(C)C)cc2)/C=C/C(=O)O1 [brefeldin A 4-O-(4)-dimethylaminocinnamate] | – | – | – | pIC50 (BEL-7402): 6.08; pIC50 (HepG2): 6.54
O=C(O)/C=C/c1ccccc1 [cinnamic acid] | 6.60 | – | – | –
O=c1cc(-c2ccc(O[C@@H]3O[C@H](CO)[C@@H](O)[C@H](O)[C@H]3O)cc2)oc2cc(O)c([C@@H]3O[C@H](CO)[C@@H](O)[C@H](O)[C@H]3O)c(O)c12 [isovitexin 4′-O-glucoside] | – | – | 3.90 | SI (selectivity index) (LmDHFR-TS): 2.4; LmDHFR-TS IC50 (LmDHFR-TS; [1]): low activity; pIC50 (LmDHFR-TS; recombinant LmDHFR-TS 2.7 nM, 0.1–128 μM test range, triplicate, read-out: LmDHFR-TS IC50): 4.27
C=CC(C)(C)c1cc(/C=C/C(=O)c2ccc(O)cc2)c(OC)cc1O [licochalcone A] | 6.05 | – | – | –
O=c1cc(-c2ccc(O)c(O)c2)oc2cc(O)cc(O)c12 [luteolin] | 5.51 | – | – | –
O=c1c(O)c(-c2ccc(O)c(O)c2)oc2cc(O)cc(O)c12 [quercetin] | 4.98 | – | – | –
C[C@@H]1O[C@@H](OC[C@H]2O[C@@H](Oc3c(-c4ccc(O)c(O)c4)oc4cc(O)cc(O)c4c3=O)[C@H](O)[C@@H](O)[C@@H]2O)[C@H](O)[C@H](O)[C@H]1O [rutin] | – | 4.38 | 3.72 | SI (selectivity index) (LmDHFR-TS): 4.5; LmDHFR-TS IC50 (LmDHFR-TS; [1]): low activity
